Data published in patent US6355799B1, “Substituted benzene compounds, process for their preparation, and herbicidal and defoliant compositions containing them” (ISK Americas Incorporated, priority 1997, dated 2002).

Legend:
Assay type in all cases: in vivo
[1] = system: redroot pigweed (Amaranthus retroflexus, AMARE); test: Pre-emerge test, greenhouse herbicide activity screening
Summary of the method: (§1)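 Herbicidal damage is scored 0 (none) to 100 (complete plant death) two weeks after a simulated field spray. Rates span 15–1000 g ai/ha, delivered in acetone at 187 l/ha. For post-emergence treatments, plants have 2–3 leaves and the spray carries 0.25% v/v non-ionic surfactant.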

[2] = system: upland rice (Oryza sp., var. Tebonnet, RICE); test: Post-emerge test, crop safety; conditions: post-emerge; for phytotoxicity rating RICE (crop damage): 14 days after application, rating scale 0-100; for Post-emerge Herbicidal Activity RICE: crop damage rating 0-100 at 14 days after application
Summary of the method: as §1

[3] = system: field corn (Zea mays L., var. Dekalb 535, CORN); test: Post-emerge test, crop safety; conditions: post-emerge; for phytotoxicity rating CORN (crop damage): 14 days after application, rating scale 0-100; for Post-emerge Herbicidal Activity CORN: crop damage rating 0-100 at 14 days after application
Summary of the method: as §1

[4] = system: velvetleaf (Abutilon theophrasti, ABUTH); test: Pre-emerge test, greenhouse herbicide activity screening
Summary of the method: as §1

[5] = system: barnyardgrass (Echinochloa crus-galli, ECHCG); test: as above
Summary of the method: as §1

[6] = system: lambsquarters (Chenopodium album, CHEAL); test: as above
Summary of the method: as §1

[7] = system: ivyleaf morningglory (Ipomoea hederacea, IPOHE); test: as above
Summary of the method: as §1

[8] = system: sicklepod (Cassia obtusifolia, CASOB); test: as above
Summary of the method: as §1

[9] = system: green foxtail (Setaria viridis, SETVI); test: as above
Summary of the method: as §1

[10] = system: johnsongrass (Sorghum halepense, SORHA); test: as above
Summary of the method: as §1

[11] = system: large crabgrass (Digitaria sanguinalis, DIGSA); test: as above
Summary of the method: as §1

[12] = system: upland rice (Oryza sp., var. Tebonnet, RICE); test: Pre-emerge test, crop safety
Summary of the method: (§2)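 Sandy loam pots; pre-emerge: sown 1 d pre-spray, surface-watered after, then bottom-watered. Post-emerge: sown 8–21 d before, 2–3 leaf stage, + 0.25% v/v NIS, bottom-watered. Acetone, 187 l/ha track spray, 15–1000 g ai/ha. 0–100 injury score, day 14.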

[13] = system: field corn (Zea mays L., var. Dekalb 535, CORN); test: Pre-emerge test, crop safety
Summary of the method: as §2

[14] = system: velvetleaf (Abutilon theophrasti, ABUTH); test: Post-emerge test, greenhouse herbicide activity screening; conditions: post-emerge; for phytotoxicity rating ABUTH: 14 days after application, rating scale 0-100; for Post-emerge Herbicidal Activity ABUTH: phytotoxicity rating 0-100 at 14 days after application
Summary of the method: (§3)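 Fourteen days after spraying, crop and weed injury was graded visually from 0, no effect, to 100, every plant dead. Test substances were dissolved in acetone and applied at 15–1000 g ai/ha with a flat-fan nozzle. Application was either pre-emergence, one day after sowing, or post-emergence at the 2–3 leaf stage.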

[15] = system: barnyardgrass (Echinochloa crus-galli, ECHCG); test: as above; conditions: post-emerge, 14 days after application, rating scale 0-100
Summary of the method: as §3

[16] = system: redroot pigweed (Amaranthus retroflexus, AMARE); test: as above; conditions: post-emerge; for phytotoxicity rating AMARE: 14 days after application; for Post-emerge Herbicidal Activity AMARE: phytotoxicity rating 0-100 at 14 days after application
Summary of the method: as §3

[17] = system: lambsquarters (Chenopodium album, CHEAL); test: as above; conditions: post-emerge; for phytotoxicity rating CHEAL: 14 days after application, rating scale 0-100; for Post-emerge Herbicidal Activity CHEAL: phytotoxicity rating 0-100 at 14 days after application
Summary of the method: as §3

[18] = system: ivyleaf morningglory (Ipomoea hederacea, IPOHE); test: as above; conditions: post-emerge; for phytotoxicity rating IPOHE: 14 days after application, rating scale 0-100; for Post-emerge Herbicidal Activity IPOHE: phytotoxicity rating 0-100 at 14 days after application
Summary of the method: as §3

[19] = system: sicklepod (Cassia obtusifolia, CASOB); test: as above; conditions: post-emerge; for phytotoxicity rating CASOB: 14 days after application, rating scale 0-100; for Post-emerge Herbicidal Activity CASOB: phytotoxicity rating 0-100 at 14 days after application
Summary of the method: as §3

[20] = system: green foxtail (Setaria viridis, SETVI); test: as above; conditions: post-emerge; for phytotoxicity rating SETVI: 14 days after application, rating scale 0-100; for Post-emerge Herbicidal Activity SETVI: phytotoxicity rating 0-100 at 14 days after application
Summary of the method: as §3

[21] = system: johnsongrass (Sorghum halepense, SORHA); test: as above; conditions: post-emerge; for phytotoxicity rating SORHA: 14 days after application, rating scale 0-100; for Post-emerge Herbicidal Activity SORHA: phytotoxicity rating 0-100 at 14 days after application
Summary of the method: as §3

[22] = system: large crabgrass (Digitaria sanguinalis, DIGSA); test: as above; conditions: post-emerge; for phytotoxicity rating DIGSA: 14 days after application, rating scale 0-100; for Post-emerge Herbicidal Activity DIGSA: phytotoxicity rating 0-100 at 14 days after application
Summary of the method: as §3

[23] = 63 g ai/ha, phytotoxicity rating 0-100, 14 days after application
[24] = 250 g ai/ha, phytotoxicity rating 0-100, 14 days after application
[25] = 63 g ai/ha, crop damage rating 0-100, 14 days after application
[26] = 250 g ai/ha, crop damage rating 0-100, 14 days after application
[27] = pre-emerge, rate 63 g ai/ha, phytotoxicity rating 0-100 at 14 days after application
[28] = pre-emerge, rate 250 g ai/ha, phytotoxicity rating 0-100 at 14 days after application
[29] = crop damage, pre-emerge, rate 63 g ai/ha, phytotoxicity rating 0-100 at 14 days after application
[30] = crop damage, pre-emerge, rate 250 g ai/ha, phytotoxicity rating 0-100 at 14 days after application

Cc1ccc(OC(=O)Nc2c(C)c(Cl)cc(F)c2-n2c(=O)cc(C(F)(F)F)n(C)c2=O)cc1C [4-53]
85: Pre-emerge Herbicidal Activity ECHCG [5, 24] | Pre-emerge Herbicidal Activity SORHA [10, 24]
50: Pre-emerge Herbicidal Activity RICE [12, 26]
65: phytotoxicity rating RICE (crop damage) ([2]; 250 g ai/ha)
60: Pre-emerge Herbicidal Activity CASOB [8, 24] | phytotoxicity rating ECHCG ([15]; 250 g ai/ha) | phytotoxicity rating CHEAL ([17]; 63 g ai/ha)
20: Pre-emerge Herbicidal Activity CASOB [8, 23]
90: phytotoxicity rating CHEAL ([17]; 250 g ai/ha) | phytotoxicity rating CASOB ([19]; 250 g ai/ha)
70: phytotoxicity rating CORN (crop damage) ([3]; 250 g ai/ha) | phytotoxicity rating AMARE ([16]; 63 g ai/ha, rating scale 0-100 (0 no damage, 100 complete death)) | phytotoxicity rating SETVI ([20]; 250 g ai/ha)
80: Pre-emerge Herbicidal Activity IPOHE [7, 24] | Pre-emerge Herbicidal Activity SETVI [9, 23]
25: Pre-emerge Herbicidal Activity CORN [13, 26]
40: Pre-emerge Herbicidal Activity DIGSA [11, 23] | phytotoxicity rating SORHA ([21]; 250 g ai/ha) | phytotoxicity rating DIGSA ([22]; 250 g ai/ha)
30: phytotoxicity rating RICE (crop damage) ([2]; 63 g ai/ha) | Pre-emerge Herbicidal Activity IPOHE [7, 23] | Pre-emerge Herbicidal Activity SORHA [10, 23] | phytotoxicity rating CASOB ([19]; 63 g ai/ha)
100: Pre-emerge Herbicidal Activity AMARE [1, 23] | Pre-emerge Herbicidal Activity AMARE [1, 24] | Pre-emerge Herbicidal Activity ABUTH [4, 23] | Pre-emerge Herbicidal Activity ABUTH [4, 24] | Pre-emerge Herbicidal Activity CHEAL [6, 23] | Pre-emerge Herbicidal Activity CHEAL [6, 24] | Pre-emerge Herbicidal Activity SETVI [9, 24] | Pre-emerge Herbicidal Activity DIGSA [11, 24] | phytotoxicity rating ABUTH ([14]; 63 g ai/ha) | phytotoxicity rating ABUTH ([14]; 250 g ai/ha) | phytotoxicity rating AMARE ([16]; 250 g ai/ha, rating scale 0-100) | phytotoxicity rating IPOHE ([18]; 63 g ai/ha) | phytotoxicity rating IPOHE ([18]; 250 g ai/ha)
5: phytotoxicity rating CORN (crop damage) ([3]; 63 g ai/ha)
10: Pre-emerge Herbicidal Activity ECHCG [5, 23] | Pre-emerge Herbicidal Activity RICE [12, 25] | phytotoxicity rating SETVI ([20]; 63 g ai/ha)
0: Pre-emerge Herbicidal Activity CORN [13, 25] | phytotoxicity rating ECHCG ([15]; 63 g ai/ha) | phytotoxicity rating SORHA ([21]; 63 g ai/ha) | phytotoxicity rating DIGSA ([22]; 63 g ai/ha)

COc1c(Cl)cc(F)c(N2C(=O)C3=C(CCCC3)C2=O)c1NC(=O)C=Cc1ccccc1 [8-31]
0: Pre-emerge Herbicidal Activity ECHCG [5, 27] | Pre-emerge Herbicidal Activity ECHCG [5, 28] | Pre-emerge Herbicidal Activity IPOHE [7, 27] | Pre-emerge Herbicidal Activity CASOB [8, 27] | Pre-emerge Herbicidal Activity SORHA [10, 27] | Pre-emerge Herbicidal Activity DIGSA [11, 27] | Pre-emerge Herbicidal Activity RICE [12, 29] | Pre-emerge Herbicidal Activity CORN [13, 29]
10: Post-emerge Herbicidal Activity CORN ([3]; 63 g ai/ha) | Post-emerge Herbicidal Activity CORN ([3]; 250 g ai/ha) | Pre-emerge Herbicidal Activity SETVI [9, 27] | Pre-emerge Herbicidal Activity SETVI [9, 28] | Pre-emerge Herbicidal Activity SORHA [10, 28] | Pre-emerge Herbicidal Activity DIGSA [11, 28] | Pre-emerge Herbicidal Activity CORN [13, 30] | Post-emerge Herbicidal Activity SORHA ([21]; 63 g ai/ha) | Post-emerge Herbicidal Activity DIGSA ([22]; 63 g ai/ha)
90: Pre-emerge Herbicidal Activity AMARE [1, 27]
95: Pre-emerge Herbicidal Activity ABUTH [4, 28]
30: Post-emerge Herbicidal Activity RICE ([2]; 250 g ai/ha) | Pre-emerge Herbicidal Activity IPOHE [7, 28] | Pre-emerge Herbicidal Activity RICE [12, 30] | Post-emerge Herbicidal Activity SORHA ([21]; 250 g ai/ha) | Post-emerge Herbicidal Activity DIGSA ([22]; 250 g ai/ha)
80: Post-emerge Herbicidal Activity CASOB ([19]; 250 g ai/ha)
60: Pre-emerge Herbicidal Activity ABUTH [4, 27] | Post-emerge Herbicidal Activity CASOB ([19]; 63 g ai/ha)
100: Pre-emerge Herbicidal Activity AMARE [1, 28] | Pre-emerge Herbicidal Activity CHEAL [6, 27] | Pre-emerge Herbicidal Activity CHEAL [6, 28] | Post-emerge Herbicidal Activity ABUTH ([14]; 63 g ai/ha) | Post-emerge Herbicidal Activity ABUTH ([14]; 250 g ai/ha) | Post-emerge Herbicidal Activity AMARE ([16]; 63 g ai/ha) | Post-emerge Herbicidal Activity AMARE ([16]; 250 g ai/ha) | Post-emerge Herbicidal Activity CHEAL ([17]; 63 g ai/ha) | Post-emerge Herbicidal Activity CHEAL ([17]; 250 g ai/ha) | Post-emerge Herbicidal Activity IPOHE ([18]; 63 g ai/ha) | Post-emerge Herbicidal Activity IPOHE ([18]; 250 g ai/ha)
45: Post-emerge Herbicidal Activity RICE ([2]; 63 g ai/ha)
20: Pre-emerge Herbicidal Activity CASOB [8, 28] | Post-emerge Herbicidal Activity SETVI ([20]; 63 g ai/ha) | Post-emerge Herbicidal Activity SETVI ([20]; 250 g ai/ha)
